We go through 5 compounds from ChEMBL document CHEMBL1128826, “Heteroatom effect in the PKC inhibitory activities of perhydroazepine analogs of balanol” (Bioorg Med Chem Lett, 1995).

Some results are limits rather than exact numbers.

In assay [1] the target is Protein kinase C alpha type (Homo sapiens, UniProt P17252). Briefly: Inhibition of human Protein kinase C alpha.
The target of assay [2] is T1, Protein kinase C epsilon type (Homo sapiens, UniProt Q02156).
T1 sequence (Q02156 whole entry): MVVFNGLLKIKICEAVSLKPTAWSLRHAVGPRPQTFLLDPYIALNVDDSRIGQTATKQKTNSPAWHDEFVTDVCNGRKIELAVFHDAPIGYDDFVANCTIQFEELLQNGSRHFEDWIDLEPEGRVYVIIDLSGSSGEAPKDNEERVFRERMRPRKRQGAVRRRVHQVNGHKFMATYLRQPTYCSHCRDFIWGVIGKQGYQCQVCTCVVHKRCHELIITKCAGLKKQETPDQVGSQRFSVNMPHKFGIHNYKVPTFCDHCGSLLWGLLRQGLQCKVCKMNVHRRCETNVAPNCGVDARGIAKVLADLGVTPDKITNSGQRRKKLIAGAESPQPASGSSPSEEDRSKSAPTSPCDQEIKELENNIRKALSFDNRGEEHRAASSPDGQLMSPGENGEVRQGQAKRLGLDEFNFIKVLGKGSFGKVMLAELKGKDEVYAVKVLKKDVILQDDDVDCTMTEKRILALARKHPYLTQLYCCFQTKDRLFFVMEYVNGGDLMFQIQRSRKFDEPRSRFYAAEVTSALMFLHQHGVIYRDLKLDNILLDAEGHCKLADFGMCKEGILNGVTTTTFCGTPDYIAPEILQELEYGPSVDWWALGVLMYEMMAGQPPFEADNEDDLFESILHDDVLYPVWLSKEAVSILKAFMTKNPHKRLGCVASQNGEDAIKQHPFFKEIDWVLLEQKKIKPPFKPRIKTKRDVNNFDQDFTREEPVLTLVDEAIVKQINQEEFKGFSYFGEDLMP
Description: Inhibition of human Protein kinase C epsilon.

In assay [3] the target is Protein kinase C eta type (Homo sapiens, UniProt P24723). Briefly: Inhibition of human protein kinase C eta.
Protein kinase C eta type, sequence (P24723 whole entry): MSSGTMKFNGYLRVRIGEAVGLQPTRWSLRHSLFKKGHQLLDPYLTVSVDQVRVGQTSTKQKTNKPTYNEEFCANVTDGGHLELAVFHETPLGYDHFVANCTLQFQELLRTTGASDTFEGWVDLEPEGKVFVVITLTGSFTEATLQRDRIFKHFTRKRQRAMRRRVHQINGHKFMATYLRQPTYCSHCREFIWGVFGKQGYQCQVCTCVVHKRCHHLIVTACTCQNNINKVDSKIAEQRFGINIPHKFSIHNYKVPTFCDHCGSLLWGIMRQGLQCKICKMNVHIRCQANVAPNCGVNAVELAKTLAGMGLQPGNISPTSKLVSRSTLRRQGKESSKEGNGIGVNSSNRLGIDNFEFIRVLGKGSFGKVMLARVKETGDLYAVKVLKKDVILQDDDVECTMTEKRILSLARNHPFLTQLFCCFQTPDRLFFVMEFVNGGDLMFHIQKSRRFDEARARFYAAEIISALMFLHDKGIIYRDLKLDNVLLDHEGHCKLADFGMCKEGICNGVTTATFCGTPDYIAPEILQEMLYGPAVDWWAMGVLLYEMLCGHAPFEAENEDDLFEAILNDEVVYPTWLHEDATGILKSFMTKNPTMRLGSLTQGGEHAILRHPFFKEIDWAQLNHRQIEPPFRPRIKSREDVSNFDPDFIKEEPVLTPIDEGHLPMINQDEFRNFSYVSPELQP
Assay [4] addresses T2, Protein kinase C beta type (Homo sapiens, UniProt P05771). Briefly: Inhibition of human Protein kinase C beta 1.
For assay [5], the target named is T2, Protein kinase C beta type. Description: Inhibition of human Protein kinase C beta 2.
Assay [6] addresses T3, Protein kinase C zeta type (Homo sapiens, UniProt Q05513).
T3 sequence (Q05513 whole entry): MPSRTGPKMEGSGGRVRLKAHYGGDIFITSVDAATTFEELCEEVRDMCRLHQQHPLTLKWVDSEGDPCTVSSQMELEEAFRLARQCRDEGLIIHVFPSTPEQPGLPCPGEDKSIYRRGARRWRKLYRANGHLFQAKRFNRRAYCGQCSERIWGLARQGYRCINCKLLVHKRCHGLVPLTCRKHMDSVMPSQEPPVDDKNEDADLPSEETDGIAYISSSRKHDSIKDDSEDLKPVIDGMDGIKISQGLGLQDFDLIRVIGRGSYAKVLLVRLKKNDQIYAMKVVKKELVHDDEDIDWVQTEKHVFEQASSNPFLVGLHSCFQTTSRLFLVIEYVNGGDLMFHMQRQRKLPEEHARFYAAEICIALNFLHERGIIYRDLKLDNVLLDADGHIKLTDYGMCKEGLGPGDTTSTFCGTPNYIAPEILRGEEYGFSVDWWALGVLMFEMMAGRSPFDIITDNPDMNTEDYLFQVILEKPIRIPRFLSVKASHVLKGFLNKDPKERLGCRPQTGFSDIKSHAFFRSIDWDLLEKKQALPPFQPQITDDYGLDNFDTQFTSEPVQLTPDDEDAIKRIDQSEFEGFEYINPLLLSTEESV
Briefly: Inhibition of Protein kinase C zeta.

The target in assay [7] is Protein kinase C delta type (Homo sapiens, UniProt Q05655). Description: Inhibition of human Protein kinase C delta.
Protein kinase C delta type, sequence (Q05655 whole entry): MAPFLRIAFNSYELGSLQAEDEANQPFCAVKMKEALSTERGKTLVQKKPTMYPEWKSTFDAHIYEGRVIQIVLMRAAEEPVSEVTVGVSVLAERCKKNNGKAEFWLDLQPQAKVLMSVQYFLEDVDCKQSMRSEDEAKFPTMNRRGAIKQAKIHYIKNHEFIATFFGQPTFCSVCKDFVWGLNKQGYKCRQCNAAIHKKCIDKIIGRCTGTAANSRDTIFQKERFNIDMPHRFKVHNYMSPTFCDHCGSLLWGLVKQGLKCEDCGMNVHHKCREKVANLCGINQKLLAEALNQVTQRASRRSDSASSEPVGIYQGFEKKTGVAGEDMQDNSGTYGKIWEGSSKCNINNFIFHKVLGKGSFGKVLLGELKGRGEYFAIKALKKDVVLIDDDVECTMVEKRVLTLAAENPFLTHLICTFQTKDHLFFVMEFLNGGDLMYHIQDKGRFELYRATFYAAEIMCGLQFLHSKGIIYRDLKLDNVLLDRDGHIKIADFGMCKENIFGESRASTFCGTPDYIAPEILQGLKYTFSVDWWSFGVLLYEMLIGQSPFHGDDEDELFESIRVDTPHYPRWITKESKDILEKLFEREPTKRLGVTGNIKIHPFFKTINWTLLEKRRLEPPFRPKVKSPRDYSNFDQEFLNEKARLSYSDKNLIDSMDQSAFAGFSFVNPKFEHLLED
For assay [8], the target named is Protein kinase C gamma type (Homo sapiens, UniProt P05129). Briefly: Inhibition of human Protein kinase C gamma.

T2 sequence (P05771 whole entry): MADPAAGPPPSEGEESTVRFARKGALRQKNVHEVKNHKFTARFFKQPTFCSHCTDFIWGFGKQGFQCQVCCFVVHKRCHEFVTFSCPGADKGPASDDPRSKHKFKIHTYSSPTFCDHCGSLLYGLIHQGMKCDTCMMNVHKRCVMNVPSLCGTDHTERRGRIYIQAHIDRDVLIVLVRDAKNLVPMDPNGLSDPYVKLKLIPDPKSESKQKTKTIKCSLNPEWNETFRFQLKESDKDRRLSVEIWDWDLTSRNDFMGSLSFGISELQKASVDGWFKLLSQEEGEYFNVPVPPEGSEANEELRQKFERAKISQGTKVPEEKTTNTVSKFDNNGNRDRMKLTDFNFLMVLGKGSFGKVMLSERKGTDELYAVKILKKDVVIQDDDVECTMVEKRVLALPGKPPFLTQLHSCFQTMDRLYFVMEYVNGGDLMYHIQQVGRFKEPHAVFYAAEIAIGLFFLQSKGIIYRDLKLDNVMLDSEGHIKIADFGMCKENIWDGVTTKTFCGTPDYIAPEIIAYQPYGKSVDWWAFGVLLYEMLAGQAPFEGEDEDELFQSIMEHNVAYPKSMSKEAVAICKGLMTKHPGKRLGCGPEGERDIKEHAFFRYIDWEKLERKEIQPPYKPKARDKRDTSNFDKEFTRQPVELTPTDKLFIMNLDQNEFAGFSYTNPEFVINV

In the case of `O=C(N[C@H]1CCCCC[C@H]1OC(=O)c1cc(O)c(C(=O)c2c(O)cccc2C(=O)O)c(O)c1)c1ccc(O)cc1`, the IC50 (as a rule, the concentration needed to halve the response being measured) in assay [1] is 270 nM; in assay [2], 280 nM; in assay [3], 60 nM; in assay [4], 220 nM; in assay [5], 430 nM; in assay [6] it was above 150000 nM. Further, the IC50 in assay [7] is 90 nM; in assay [8], 60 nM.

Consider `O=C(N[C@H]1CS(=O)(=O)CCC[C@H]1OC(=O)c1cc(O)c(C(=O)c2c(O)cccc2C(=O)O)c(O)c1)c1ccc(O)cc1`, for which the IC50 in assay [1] is 9600 nM; in assay [2], 45000 nM; in assay [3] it was 830 nM; in assay [4] it was 5200 nM; in assay [5] it was 3600 nM; in assay [6], above 150000 nM. The IC50 in assay [7] came to 4000 nM; in assay [8], 4300 nM.

As to `O=C(N[C@H]1CSCCC[C@H]1OC(=O)c1cc(O)c(C(=O)c2c(O)cccc2C(=O)O)c(O)c1)c1ccc(O)cc1`, the IC50 in assay [1] was 3300 nM; in assay [2] it was 5900 nM; in assay [3], 100 nM; in assay [4], 3800 nM; in assay [5] it was 2400 nM; in assay [7], 90 nM. This compound came in with an IC50 in assay [8] of 1000 nM.

For `O=C(N[C@H]1COCCC[C@H]1OC(=O)c1cc(O)c(C(=O)c2c(O)cccc2C(=O)O)c(O)c1)c1ccc(O)cc1`, the IC50 in assay [1] is 6700 nM; in assay [2], 16000 nM; in assay [3], 10 nM; in assay [4], 2500 nM; in assay [5], 3300 nM; in assay [6], above 150000 nM. Moreover, the 50% inhibitory concentration (IC50) in assay [7] stood at 90 nM; in assay [8] it was 1000 nM.

On to `O=C(N[C@H]1CNCCC[C@H]1OC(=O)c1cc(O)c(C(=O)c2c(O)cccc2C(=O)O)c(O)c1)c1ccc(O)cc1` (racemic), for which the IC50 in assay [1] is 74 nM; in assay [3], 22 nM; in assay [4] it was 32 nM; in assay [5] it was 44 nM; in assay [6] it was 3500 nM; in assay [7] it was 32 nM. The IC50 in assay [8] came out at 34 nM.
